# According to patent US20190350964A1, “ANTI-CANCER COMPOUNDS AND USES THEREOF” (NATIONAL UNIVERSITY OF SINGAPORE, priority 2016, published 2019):
# Legend:
# [1] = target: T1, RNA-binding motif, single-stranded-interacting protein 1 (Homo sapiens, UniProt P29558); assay: MS-CETSA in normal BJ cell lysates; details: Uniprot B4DN88, lysate, 100 μM compound
# T1 construct: After collecting data covering >8,000 proteins in lysates of normal BJ cells; endogenous in cells; host or cells: normal BJ cells, lysate
# T1 sequence (P29558 whole entry): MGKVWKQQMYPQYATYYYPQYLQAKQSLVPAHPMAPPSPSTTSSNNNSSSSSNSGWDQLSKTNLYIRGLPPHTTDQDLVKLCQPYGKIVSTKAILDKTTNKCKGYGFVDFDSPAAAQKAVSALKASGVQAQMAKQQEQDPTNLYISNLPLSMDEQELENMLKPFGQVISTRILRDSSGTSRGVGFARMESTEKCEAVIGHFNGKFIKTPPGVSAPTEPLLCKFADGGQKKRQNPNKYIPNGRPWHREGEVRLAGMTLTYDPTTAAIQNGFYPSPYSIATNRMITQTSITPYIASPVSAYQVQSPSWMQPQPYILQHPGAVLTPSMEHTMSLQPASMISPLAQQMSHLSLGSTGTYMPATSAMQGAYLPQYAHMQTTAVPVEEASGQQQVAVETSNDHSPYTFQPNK
# Method: (§1) Target identification was performed by cellular thermal shift assay (CETSA) coupled with quantitative mass spectrometry. In brief, normal BJ cells were lysed by combination of freeze/thaw and mechanical shearing with needle in buffer [50 mM HEPES (pH 7.5), 5 mM β-glycerophosphate, 0.1 mM Sodium Vanadate, 10 mM MgCl2, 1 mM TCEP and 1× Protease inhibitor Cocktail]. The cell debris was removed by centrifugation at 20,000 g for 20 min at 4° C. […] Each lysate was divided into 10 aliquots for heat treatment at the respective temperatures for 3 min in a 96-well thermocycler, followed by 3 min at 4° C. The lysate was centrifuged at 20,000 g for 20 min at 4° C. and the supernatant was transferred into microtubes for MS sample preparation.
# (§2) After lysis, at least 100 μg of the protein (measured with a BCA assay) was subjected to reduction, denaturation and alkylation. Samples were subsequently incubated with sequencing grade LysC (Wako) and trypsin (Promega) for digestion overnight at 37° C. The digested samples were dried using a centrifugal vacuum evaporator, solubilized in 100 mM TEAB. […]
# (§3) Proteins for which a low temperature plateau was not present were deleted using a cut off >0.85 for the average reading of the first three temperature points (in our experience proteins melting already at −37° C. are more prone to give false positives in a shift analysis).
# HT29 = assay: MTT cytotoxicity test (GI50); type: cell-based; details: Homo sapiens, HT-29; HT29, cancer, colon; MTT 72 h
# [2] = test system: MDA-MB-231 human breast tumor cells; assay: MDA-MB-231 tumor xenograft in nude mice; type: in vivo, mouse; details: a131 20 mg/kg, b5 40-80 mg/kg, PO or IP twice daily, 15 days
# Source text: BALB/c athymic female nude mice (nu/nu, 5-7 weeks) (InVivos) were kept under specific pathogen-free (SPF) conditions. The care and use of mice was approved by the Duke-NUS IACUC in accordance with protocol 2015/SHS/1030. HCT15 human colon cancer cells (5×10^6) or MDA-MB-231 human breast cancer cells (4×10^6 with Matrigel) were subcutaneously injected into the flanks of mice. When the mean tumor volume reached 100-300 mm^3 (Day 1), the mice were randomly divided into experimental groups of 6 mice by an algorithm that moves animals around to achieve the best case distribution to assure that each treatment group has similar mean tumor burden and standard deviation. No statistical method was used to predetermine sample size. […] Tumor dimensions were measured using calipers, and tumor volume (mm^3) was calculated using the formula width^2×length/2 in a blinded fashion. […] Images were acquired in 3D-SIM mode using a super resolution microscope (Nikon), and the number of cells with either 2 or mitotic-spindles was quantified (n>50 cells per section, 6-7 sections per treatment). […] For the DAB image, a fixed threshold was used, watershed applied and the number of DAB stained nuclei counted. In all cases, no data or animals were excluded and results are expressed as mean and standard deviation of the mean.
# [3] = target: T2, 3-hydroxybutyrate dehydrogenase type 2 (Homo sapiens, UniProt Q9BUT1); assay: MS-CETSA in normal BJ cell lysates; type: binding; details: lysate, 100 μM compound
# T2 construct: After collecting data covering >8,000 proteins in lysates of normal BJ cells; endogenous in cells; host or cells: normal BJ cells, lysate
# T2 sequence (Q9BUT1 whole entry): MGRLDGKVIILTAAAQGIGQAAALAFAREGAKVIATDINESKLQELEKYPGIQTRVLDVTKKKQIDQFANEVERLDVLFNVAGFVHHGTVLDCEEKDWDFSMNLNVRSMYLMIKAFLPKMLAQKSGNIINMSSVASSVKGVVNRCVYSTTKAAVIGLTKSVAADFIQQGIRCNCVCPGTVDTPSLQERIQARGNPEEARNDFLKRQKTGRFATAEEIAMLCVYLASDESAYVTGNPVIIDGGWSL
# Method: as §1, §2, §3
# MCF7 = assay: MTT cytotoxicity test (GI50); type: cell-based; details: Homo sapiens; MCF7, cancer, breast; MTT 72 h
# DLD1 = assay: MTT cytotoxicity test (GI50); type: cell-based; details: Homo sapiens, DLD-1; DLD1, cancer, colon; MTT 72 h
# [4] = target: T3, AP-3 complex subunit sigma-1 (Homo sapiens, UniProt Q92572); assay: MS-CETSA in normal BJ cell lysates; type: binding; details: lysate, 100 μM compound
# T3 construct: After collecting data covering >8,000 proteins in lysates of normal BJ cells; endogenous in cells; host or cells: normal BJ cells, lysate
# T3 sequence (Q92572 whole entry): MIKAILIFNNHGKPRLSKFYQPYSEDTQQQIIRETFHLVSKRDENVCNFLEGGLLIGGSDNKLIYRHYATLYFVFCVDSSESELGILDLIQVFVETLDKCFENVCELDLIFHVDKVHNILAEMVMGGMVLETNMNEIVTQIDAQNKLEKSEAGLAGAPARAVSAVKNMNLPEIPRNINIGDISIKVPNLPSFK
# T3 sequence (O14617 whole entry partner): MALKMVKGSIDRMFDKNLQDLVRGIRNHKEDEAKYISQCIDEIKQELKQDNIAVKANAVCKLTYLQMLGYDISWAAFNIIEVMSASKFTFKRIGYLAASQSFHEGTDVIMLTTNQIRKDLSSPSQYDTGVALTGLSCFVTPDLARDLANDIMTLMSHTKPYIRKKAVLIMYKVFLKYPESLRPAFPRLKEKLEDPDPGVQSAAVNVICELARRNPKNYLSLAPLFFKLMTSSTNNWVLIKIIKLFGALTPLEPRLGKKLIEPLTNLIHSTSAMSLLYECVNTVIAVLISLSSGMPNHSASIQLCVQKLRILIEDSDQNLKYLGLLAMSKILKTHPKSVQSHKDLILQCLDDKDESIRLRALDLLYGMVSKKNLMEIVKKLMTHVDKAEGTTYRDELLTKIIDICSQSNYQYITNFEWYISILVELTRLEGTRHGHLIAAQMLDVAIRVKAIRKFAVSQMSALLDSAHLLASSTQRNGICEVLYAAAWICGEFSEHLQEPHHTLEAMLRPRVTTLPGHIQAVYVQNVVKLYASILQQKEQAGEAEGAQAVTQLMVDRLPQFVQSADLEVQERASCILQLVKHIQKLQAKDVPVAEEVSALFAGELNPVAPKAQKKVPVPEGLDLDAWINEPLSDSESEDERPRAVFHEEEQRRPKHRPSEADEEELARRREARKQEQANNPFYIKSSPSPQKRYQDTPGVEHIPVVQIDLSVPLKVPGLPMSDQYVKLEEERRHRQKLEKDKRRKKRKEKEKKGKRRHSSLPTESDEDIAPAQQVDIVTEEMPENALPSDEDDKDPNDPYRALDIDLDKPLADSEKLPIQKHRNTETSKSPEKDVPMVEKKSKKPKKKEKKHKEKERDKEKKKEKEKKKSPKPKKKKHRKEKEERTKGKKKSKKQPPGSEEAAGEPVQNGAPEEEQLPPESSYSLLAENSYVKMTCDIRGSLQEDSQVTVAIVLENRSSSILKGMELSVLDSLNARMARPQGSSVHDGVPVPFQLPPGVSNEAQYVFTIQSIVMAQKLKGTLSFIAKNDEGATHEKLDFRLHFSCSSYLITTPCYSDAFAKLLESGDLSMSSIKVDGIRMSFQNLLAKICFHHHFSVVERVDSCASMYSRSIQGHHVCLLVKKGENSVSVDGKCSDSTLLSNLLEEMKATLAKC
# T3 sequence (O00203 whole entry partner): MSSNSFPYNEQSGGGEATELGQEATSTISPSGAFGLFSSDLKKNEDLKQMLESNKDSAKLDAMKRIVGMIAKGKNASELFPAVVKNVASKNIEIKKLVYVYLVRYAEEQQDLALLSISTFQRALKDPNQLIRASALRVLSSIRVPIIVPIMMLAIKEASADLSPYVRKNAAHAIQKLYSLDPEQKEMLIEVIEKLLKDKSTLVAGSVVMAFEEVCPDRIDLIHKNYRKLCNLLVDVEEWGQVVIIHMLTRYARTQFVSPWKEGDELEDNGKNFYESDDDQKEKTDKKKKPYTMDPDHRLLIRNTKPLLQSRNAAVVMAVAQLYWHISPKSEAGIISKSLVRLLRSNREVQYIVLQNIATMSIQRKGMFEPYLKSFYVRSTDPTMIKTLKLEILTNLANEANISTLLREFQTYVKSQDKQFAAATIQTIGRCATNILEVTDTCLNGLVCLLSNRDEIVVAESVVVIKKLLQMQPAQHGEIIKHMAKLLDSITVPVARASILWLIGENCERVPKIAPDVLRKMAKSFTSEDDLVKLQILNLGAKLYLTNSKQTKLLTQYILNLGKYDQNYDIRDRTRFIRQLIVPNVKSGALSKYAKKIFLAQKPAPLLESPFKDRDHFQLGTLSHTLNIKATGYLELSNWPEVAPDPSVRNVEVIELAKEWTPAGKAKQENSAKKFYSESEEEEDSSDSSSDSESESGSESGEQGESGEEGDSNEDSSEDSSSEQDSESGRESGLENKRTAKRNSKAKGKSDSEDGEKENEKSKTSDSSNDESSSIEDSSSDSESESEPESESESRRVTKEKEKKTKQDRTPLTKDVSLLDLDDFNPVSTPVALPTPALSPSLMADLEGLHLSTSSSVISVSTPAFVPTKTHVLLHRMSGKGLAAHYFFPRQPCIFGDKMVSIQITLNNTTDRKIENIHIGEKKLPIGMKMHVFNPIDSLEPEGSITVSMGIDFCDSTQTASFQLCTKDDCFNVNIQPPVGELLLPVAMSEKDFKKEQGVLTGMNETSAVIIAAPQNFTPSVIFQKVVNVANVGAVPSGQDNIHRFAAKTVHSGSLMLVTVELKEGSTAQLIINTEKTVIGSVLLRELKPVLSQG
# T3 sequence (Q9Y2T2 whole entry partner): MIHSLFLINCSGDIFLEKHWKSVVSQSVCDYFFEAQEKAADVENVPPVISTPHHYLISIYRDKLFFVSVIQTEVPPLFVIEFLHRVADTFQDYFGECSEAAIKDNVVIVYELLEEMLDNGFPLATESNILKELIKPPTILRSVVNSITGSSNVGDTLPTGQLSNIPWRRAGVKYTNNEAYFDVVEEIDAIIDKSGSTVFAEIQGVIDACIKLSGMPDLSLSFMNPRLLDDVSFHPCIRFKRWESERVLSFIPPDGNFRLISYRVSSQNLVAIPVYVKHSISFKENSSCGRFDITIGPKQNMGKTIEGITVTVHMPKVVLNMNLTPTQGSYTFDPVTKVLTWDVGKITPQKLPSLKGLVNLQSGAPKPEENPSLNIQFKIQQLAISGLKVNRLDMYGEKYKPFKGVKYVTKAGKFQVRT
# Method: as §1, §2, §3
# MKN45 = assay: MTT cytotoxicity test (GI50); type: cell-based; details: Homo sapiens, MKN-45; MKN45, cancer, gastric; MTT 72 h
# [5] = test system: HCT-15 human colon adenocarcinoma cells; assay: HCT-15 tumor xenograft in nude mice; type: in vivo, mouse
# Source text: BALB/c athymic female nude mice (nu/nu, 5-7 weeks) (InVivos) were kept under specific pathogen-free (SPF) conditions. The care and use of mice was approved by the Duke-NUS IACUC in accordance with protocol 2015/SHS/1030. HCT15 human colon cancer cells (5×10^6) or MDA-MB-231 human breast cancer cells (4×10^6 with Matrigel) were subcutaneously injected into the flanks of mice. When the mean tumor volume reached 100-300 mm^3 (Day 1), the mice were randomly divided into experimental groups of 6 mice by an algorithm that moves animals around to achieve the best case distribution to assure that each treatment group has similar mean tumor burden and standard deviation. No statistical method was used to predetermine sample size. […] Paclitaxel (Cayman Chemical) was dissolved in ethanol:Tween 80=1:3 (v/v) solution followed by the addition of a 5% glucose solution (final ratio, ethanol:Tween 80:5% glucose=5:15:80) and injected via the tail vain (IV). Tumor dimensions were measured using calipers, and tumor volume (mm^3) was calculated using the formula width^2×length/2 in a blinded fashion. On Day 12 (HCT15) or Day 16 (MDA-MB-231), mice were sacrificed. Tumors were collected, fixed overnight in 4% paraformaldehyde (PFA) and stored in 70% ethanol. For immunostaining, antigens were retrieved from formaldehyde-fixed, paraffin-embedded tumor tissue sections for 30 min by boiling in sodium citrate buffer (pH 6.0) using a microwave histoprocessor (Milestone). Endogenous peroxidase activity in tissue sections was depleted by treatment with 3% hydrogen peroxide (H2O2 in 1×TBS) for 20 min at room temperature. Tumor tissue sections were incubated overnight with anti-β-tubulin (Abcam; 1:100 in 3% BSA/TBS-Tween 20) at 4° C. followed by incubation with goat anti-rabbit FITC-conjugated secondary antibody (Invitrogen; 1:200 in 3% BSA/TBS) for 1 h at 25° C. After dehydration treatment, coverslips were mounted using DAPI mounting medium (Vector). Images were acquired in 3D-SIM mode using a super resolution microscope (Nikon), and the number of cells with either 2 or mitotic-spindles was quantified (n>50 cells per section, 6-7 sections per treatment). For detection of apoptosis using the TUNEL method, the ApopTag Plus Peroxidase In Situ Apoptosis Detection Kit (Millipore) was used for formaldehyde-fixed, paraffin-embedded tumor tissue sections treated with b5 (80 mg/kg, IP) or control vehicle for 12 days. Slide scans were acquired using a MetaSystems Metafer built on a Zeiss Axiolmager Z.2 upright microscope. The system is equipped with a CoolCubel camera and a Zeiss Plan-Neofluar 20×/0.5 Ph2 objective lens. Image acquisition was controlled with Metafer4 software, and stitching was performed with the VSlide software and further processed using the open source software FIJI. A custom macro was used to batch process the images in the following sequence: Gaussian filter, color deconvolution of hematoxylin and DAB, thresholding the hematoxylin image, watershed to separate touching nuclei, and then count the number of hematoxylin-stained nuclei. For the DAB image, a fixed threshold was used, watershed applied and the number of DAB stained nuclei counted. In all cases, no data or animals were excluded and results are expressed as mean and standard deviation of the mean.
# human cancer cell lines = assay: MTT cytotoxicity test, panel of human cancer cell lines; type: cell-based; details: mean over panel of human cancer cell lines; MTT 72 h
# HeLa = assay: MTT cytotoxicity test (GI50); type: cell-based; details: Homo sapiens, cancer, others, cervix, MTT 72 h
# AGS = assay: MTT cytotoxicity test (GI50); type: cell-based; details: Homo sapiens, cancer, gastric, MTT 72 h
# SNU-16 = assay: MTT cytotoxicity test (GI50); type: cell-based; details: Homo sapiens; SNU-16, cancer, gastric; MTT 72 h
# SNU1750 = assay: MTT cytotoxicity test (GI50); type: cell-based; details: Homo sapiens; SNU1750, cancer, gastric; MTT 72 h
# [6] = target: T4, Delta(3,5)-Delta(2,4)-dienoyl-CoA isomerase, mitochondrial (Homo sapiens, UniProt Q13011); assay: MS-CETSA in normal BJ cell lysates; type: binding; details: lysate, 100 μM compound
# T4 construct: After collecting data covering >8,000 proteins in lysates of normal BJ cells; endogenous in cells; host or cells: normal BJ cells, lysate
# T4 sequence (Q13011 34-328): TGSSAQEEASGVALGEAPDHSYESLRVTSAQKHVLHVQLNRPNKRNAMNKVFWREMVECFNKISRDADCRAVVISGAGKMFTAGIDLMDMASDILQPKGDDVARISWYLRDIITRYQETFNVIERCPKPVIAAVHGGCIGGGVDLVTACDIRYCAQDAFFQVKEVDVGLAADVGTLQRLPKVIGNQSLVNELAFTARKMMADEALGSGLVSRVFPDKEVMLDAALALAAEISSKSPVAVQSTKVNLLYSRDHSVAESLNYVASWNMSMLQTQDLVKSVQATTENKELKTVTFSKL
# Method: as §1, §2, §3
# [7] = target: T5, Coproporphyrinogen-III oxidase, mitochondrial (Homo sapiens, UniProt P36551); assay: MS-CETSA in normal BJ cell lysates; type: binding; details: lysate, 100 μM compound
# T5 construct: After collecting data covering >8,000 proteins in lysates of normal BJ cells; endogenous in cells; host or cells: normal BJ cells, lysate
# T5 sequence (P36551 111-454): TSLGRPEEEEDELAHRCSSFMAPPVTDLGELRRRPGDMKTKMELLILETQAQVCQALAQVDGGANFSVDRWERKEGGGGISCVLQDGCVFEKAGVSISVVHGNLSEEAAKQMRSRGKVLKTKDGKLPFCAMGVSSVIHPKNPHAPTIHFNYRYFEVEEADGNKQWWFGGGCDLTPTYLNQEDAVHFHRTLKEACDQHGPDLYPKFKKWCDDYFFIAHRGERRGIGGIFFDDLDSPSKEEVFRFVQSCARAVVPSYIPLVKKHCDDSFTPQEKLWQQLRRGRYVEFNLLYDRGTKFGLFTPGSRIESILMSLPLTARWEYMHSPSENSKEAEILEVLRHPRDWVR
# Method: as §1, §2, §3
# SCH = assay: MTT cytotoxicity test (GI50); type: cell-based; details: Homo sapiens, cancer, gastric, MTT 72 h
# [8] = target: T6, Retinal rod rhodopsin-sensitive cGMP 3′,5′-cyclic phosphodiesterase subunit delta (Homo sapiens, UniProt O43924); assay: MS-CETSA in normal BJ cell lysates; type: binding; details: lysate, 100 μM compound
# T6 construct: After collecting data covering >8,000 proteins in lysates of normal BJ cells; endogenous in cells; host or cells: normal BJ cells, lysate
# T6 sequence (O43924 whole entry): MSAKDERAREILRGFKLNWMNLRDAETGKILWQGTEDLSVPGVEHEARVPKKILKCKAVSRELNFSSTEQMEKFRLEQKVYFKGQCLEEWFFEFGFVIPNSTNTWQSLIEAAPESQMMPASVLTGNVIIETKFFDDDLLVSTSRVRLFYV
# Method: as §1, §2, §3
compound,measurement,setting,value
"N#C/C(=C\c1cccc2cnccc12)c1c[nH]c2ccccc12 [a131, (Z)-2-(1H-indol-3-yl)-3-(5-isoquinolyl)prop-2-enenitrile]",ED score,[1],0.3144
same,ΔTm at 100 µM,[1]; read-out: mean Delta Tm,2.01 °C
same,GI50,HT29,900 nM
same,antitumor activity (tumor volume),[2],marked antitumor efficacies
same,ED score,[3],0.5139
same,ΔTm at 100 µM,[3]; read-out: mean Delta Tm,1.83 °C
same,GI50,MCF7,1200 nM
same,GI50,DLD1,1200 nM
same,ED score,[4],0.3486
same,ΔTm at 100 µM,[4]; read-out: mean Delta Tm,2.26 °C
same,GI50,MKN45,1000 nM
same,misaligned chromosomes / multipolar spindles in tumor sections,"[5]; HCT-15 tumor sections, Day 12",caused massively misaligned chromosomes with multipolar spindles in tumor sections
same,antitumor activity (tumor volume),"[5]; a131 20 mg/kg, b5 40-80 mg/kg, PO or IP twice daily, 12 days, paclitaxel IV",marked antitumor efficacies
same,body weight loss,"[5]; xenograft-bearing mice, PO or IP twice daily",without any body weight loss
same,GI50,human cancer cell lines,1700 nM
same,GI50,HeLa,1400 nM
same,GI50,AGS,1100 nM
same,GI50,SNU-16,1000 nM
same,GI50,SNU1750,700 nM
same,ED score,[6],0.3541
same,ΔTm at 100 µM,[6]; read-out: mean Delta Tm,1.51 °C
same,ED score,[7],0.3274
same,ΔTm at 100 µM,[7]; read-out: mean Delta Tm,1.61 °C
same,GI50,SCH,1700 nM
same,ED score,[8],0.3092
same,ΔTm at 100 µM,[8]; read-out: mean Delta Tm,3.02 °C
